Source: US20040024000A1, “Dihydropyrimidine derivatives as cysteine protease inhibitors” (priority 2003, published 2004)

Assays:
r cathepsin K = target: T1, r cathepsin K (Homo sapiens, UniProt P43235); experiment: In vitro assay for cathepsin K inhibition; type: biochemical; conditions: substrate N-CBZ-Phe-Arg-AMC, pH 5.5, 10 min preincubation
T1 sequence (P43235 115-329): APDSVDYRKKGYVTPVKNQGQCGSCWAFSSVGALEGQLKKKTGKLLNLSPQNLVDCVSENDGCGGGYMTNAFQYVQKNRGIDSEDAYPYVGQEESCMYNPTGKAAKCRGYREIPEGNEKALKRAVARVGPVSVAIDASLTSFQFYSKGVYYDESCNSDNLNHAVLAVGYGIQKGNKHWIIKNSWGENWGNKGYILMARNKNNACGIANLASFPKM
Description: To a […] of enzyme-buffer mixture (enzyme: r cathepsin K, diluted to give approximate 30 F units/min, buffer: 100 mM sodium acetate, 5 mM EDTA, 20 mM L-cysteine, 0.01% Brij, pH 5.5) a 10 μl of inhibitor (dissolved in DMSO) was added. After 10 min of incubation at room temperature, a 20 μl of 2.7 mM substrate (N-CBZ-Phe-Arg-AMC, dissolved in DMSO) was added to initiate reaction. Reading is followed up for 10 min at the fluoroscan II plate reader (excitation at 380 nm emission at 460 nm).
(§1) A plot of percentage of inhibition vs inhibitor concentration is obtained, and IC50 is determined using a linear regression calculations (concentration of inhibitor which will give 50% inhibition).

r rat cathepsin B = r rat cathepsin B (Rattus norvegicus, UniProt P00787); experiment: In vitro assay for cathepsin B inhibition; type: biochemical; conditions: substrate N-CBZ-Phe-Arg-AMC, pH 5.1, 10 min preincubation
r rat cathepsin B, sequence (P00787 80-333): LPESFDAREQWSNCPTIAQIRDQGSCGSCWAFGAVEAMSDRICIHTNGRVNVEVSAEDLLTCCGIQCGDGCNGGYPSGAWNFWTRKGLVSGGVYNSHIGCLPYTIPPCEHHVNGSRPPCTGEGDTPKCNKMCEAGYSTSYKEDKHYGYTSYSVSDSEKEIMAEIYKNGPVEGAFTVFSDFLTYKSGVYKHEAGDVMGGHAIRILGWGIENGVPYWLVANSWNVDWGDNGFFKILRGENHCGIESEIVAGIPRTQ
Description: The compounds of formula I were tested for inhibition of cathepsin B using the known method (A. J. Barret et al., Biochem. J. 1982, 201, 189-198). To a 170 μl of enzyme-buffer mixture (enzyme: r rat cathepsin B, diluted to give approximate 10 F units/min, buffer: 56 mM sodium acetate, 1.124 mM EDTA, 10 mM DTT, pH 5.1) a 10 μl of inhibitor (dissolved in DMSO) was added. After 10 min of incubation at room temperature, a 20 μl of 5 mM substrate (N-CBZ-Phe-Arg-AMC, dissolved in DMSO) was added to initiate reaction. Reading is followed up for 10 min at the fluoroscan reader (excitation at 380 nm emission at 460 nm).
as §1

r rat cathepsin L = r rat cathepsin L (Rattus norvegicus, UniProt P07154); experiment: In vitro assay for cathepsin L inhibition; type: biochemical; conditions: substrate N-CBZ-Phe-Arg-AMC, pH 5.0, 10 min preincubation
r rat cathepsin L, sequence (P07154 114-334): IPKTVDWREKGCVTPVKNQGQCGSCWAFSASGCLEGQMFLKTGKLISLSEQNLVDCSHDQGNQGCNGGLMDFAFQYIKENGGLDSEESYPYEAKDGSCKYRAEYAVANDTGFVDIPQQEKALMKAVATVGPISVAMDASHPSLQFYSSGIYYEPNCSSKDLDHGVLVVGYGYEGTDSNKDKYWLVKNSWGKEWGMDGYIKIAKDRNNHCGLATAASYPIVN
Description: After 10 min of incubation at room temperature, a 20 μl of 1 mM substrate (N-CBZ-Phe-Arg-AMC, dissolved in DMSO) was added to initiate reaction. Reading is followed up for 10 min at the fluoroscan reader (excitation at 380 nm emission at 460 nm).
as §1

r cathepsin S = r cathepsin S (Homo sapiens, UniProt P25774); experiment: In vitro assay for cathepsin S inhibition; type: biochemical; conditions: substrate N-CBZ-Val-Val-Arg-AMC, pH 6.5, 10 min preincubation
r cathepsin S, sequence (P25774 115-331): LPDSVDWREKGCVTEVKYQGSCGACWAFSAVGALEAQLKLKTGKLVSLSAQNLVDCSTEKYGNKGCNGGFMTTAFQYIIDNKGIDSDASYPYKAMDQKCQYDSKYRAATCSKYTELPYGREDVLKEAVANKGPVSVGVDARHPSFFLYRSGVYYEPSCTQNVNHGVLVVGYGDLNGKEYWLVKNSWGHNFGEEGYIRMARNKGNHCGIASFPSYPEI
Description: To a […] of enzyme-buffer mixture (enzyme: r cathepsin S, diluted to give approximate 30 F units/min, buffer: 100 mM sodium phosphate, 1 mM EDTA, 5 mM DTT, 0.01% Brij, pH 6.5) a 10 μl of inhibitor (dissolved in DMSO) was added. After 10 min of incubation at room temperature a […] of 1.2 mM substrate (N-CBZ-Val-Val-Arg-AMC, dissolved in DMSO) was added to initiate reaction. Reading is followed up for 10 min at the fluoroscan 11 plate reader (excitation at 380 nm emission at 460 nm).
as §1

[1] = Pharmacokinetics in mice after single oral dose; type: in vivo; design: Cl/F: unit not given here; conditions: single oral dose of 5 mg/kg; for AUC / Cmax / half-life / Vd/F: mouse, in vivo; for Vd/F: read-out: Vz/F
Description: Selected compounds of present invention were tested in rodents. This class of compound has favorable pharmacokinetics at the oral dose of 5 mg/kg. The bioavailability is about 60-70%.

Row | SMILES | IC50 (r cathepsin K) [nM] | IC50 (r rat cathepsin B) [µM] | IC50 (r rat cathepsin L) [nM] | IC50 (r cathepsin S) [nM] | AUC [1] [ng·h/mL] | Cmax [1] [ng/mL] | half-life [1] [min] | Vd/F [1] [L/kg] | Cl/F [1]
1 | CC(C)C[C@H](NC(=O)OCc1ccccc1)C(=O)NC1=CNC(c2ccccc2)NC1=O (stereo partly drawn) [Example 1, 5-[2-(Benzyloxycarbonyl)amino-2-isobutyl]acetamido-2-phenyl-2,3-dihydopyrimidine-6-(1H)one] | 340 | 4.01 | 460 | 460 |  |  |  |  | 
2 | CC(C)C[C@H](NC(=O)OCc1ccccc1)C(=O)NC1=CNC(c2ccccc2F)NC1=O (stereo partly drawn) [Example 2, 5-[2-(Benzyloxycarbonyl)amino-2-isobutyl]acetamido-2-(2-fluorophenyl)-2,3-dihydopyrimidine-6-(1H)one] | 57 | 8.38 | 920 | 290 |  |  |  |  | 
3 | CC(C)C[C@H](NC(=O)OCc1ccccc1)C(=O)NC1=CNC2(CCCC2)NC1=O [Example 6, 5-[2-(Benzyloxycarbonyl)amino-2-isobutyl]acetamido-2,2-spirocyclopentyl-2,3-dihydopyrimidine-6-(1H)one] | 100 | 3.16 | 1790 | 480 | 2730 | 3830 ± 3090 | 97.8 ± 28.8 | 4.49 ± 1.9 | 0.617 ± 0.08
4 | CC(C)C[C@H](NC(=O)OCc1ccccc1)C(=O)NC1=CNC(C(C)(C)C)NC1=O (stereo partly drawn) [Example 8, 5-[2-(Benzyloxycarbonyl)-amino-2-isobutyl]acetamido-2-tert-butyl-2,3-dihydopyrimidine-6-(1H)one] | 74 | 4.56 | 480 | 480 |  |  |  |  | 
5 | CC(C)C[C@H](NC(=O)OCc1ccccc1)C(=O)NC1=CNC(c2ccncc2)NC1=O (stereo partly drawn) [Example 9, 5-[2-(Benzyloxycarbonyl)-amino-2-isobutyl]acetamido-2-(pyridin-4-yl)-2,3-dihydopyrimidine-6-(1H)one] | 18 | 2.29 | 460 | 55 |  |  |  |  | 
6 | CC(C)C[C@H](NC(=O)OCc1ccccc1)C(=O)NC1=CNC(CC(C)(C)C)NC1=O (stereo partly drawn) [Example 10, 5-[2-(Benzyloxycarbonyl)-amino-2-isobutyl]acetamido-2-tert-butylmethyl-2,3-dihydopyrimidine-6-(1H)one] | 250 | 9.53 | 2320 | 2320 |  |  |  |  | 
7 | CC(C)C[C@H](NC(=O)OCc1ccccc1)C(=O)Nc1c[nH]c(=O)[nH]c1=O [Example 14, 5-[2-(Benzyloxycarbonyl)-amino-2-isobutyl]acetamido Pyrimidin-2,6-dione] | > 50000 | > 50 | > 50000 | > 50000 |  |  |  |  | 
8 | CC(C)C[C@H](NC(=O)CCc1ccccc1)C(=O)NC1=CNC2(CCCC2)NC1=O [Example 17, 5-[2-(3-Phenylpropionyl)-amino-2-isobutyl]acetamido-2,2-spirocyclopentyl-2,3-dihydopyrimidine-6-(1H)one] | 12100 | > 50 | > 50000 | 8490 |  |  |  |  | 
9 | CC(C)C[C@H](NC(=O)CCc1ccccc1)C(=O)NC1=CNC2(CCCCCC2)NC1=O [Example 19, 5-[2-(3-Phenylpropionoyl)-amino-2-isobutyl]acetamido-2,2-spirocycloheptyl-2,3-dihydopyrimidine-6-(1H)one] | 91 | 5.22 | 450 | 68 |  |  |  |  | 
10 | CC(C)C[C@H](NC(=O)OCc1ccccc1)C(=O)NC1=CNC(c2ccco2)NC1=O (stereo partly drawn) [Example 20, 5-[2-(Benzyloxycarbonyl)amino-2-isobutyl]acetamido-2-(furan-2-yl)-2,3-dihydopyrimidine-6-(1H)one] | 45 | 2.35 | 1500 | 94 |  |  |  |  | 
11 | CC(C)C[C@H](NC(=O)c1cc2ccccc2s1)C(=O)NC1=CNC(c2ccccc2F)NC1=O (stereo partly drawn) [Example 21, 5-[2-(Benzothiophene-2-yl)amino-2-isobutyl]acetamido-2-(2-fluorophenyl)-2,3-dihydopyrimidine-6-(1H)one] | 14 | 0.42 | 170 | 37 | 853 | 2610 ± 1840 | 32.4 ± 23.4 | 4.49 ± 3.03 | 2.09 ± 0.72
